Values quoted from earlier work in patent US9212386B2, “Enzymatic cleavage based lateral flow assays” (Rapid Pathogen Screening, Inc., priority 2011, dated 2015).
*: point of attachment. FITC = O=C1OC2(c3ccc(O)cc3Oc3cc(O)ccc32)c2ccc(NC(=S)*)cc21; Ahx = NCCCCCC(=O)O

Legend:
[1] = test system: Bacterial Enzyme Targets (bacterial supernatants of tested micro-organisms); conditions: for In vitro Cleavage Activity (using FRET): micro-organisms whose enzymes cleave the peptide
[2] = test system: Bacterial Enzyme Targets (tested micro-organisms); conditions: micro-organisms whose enzymes cleave the peptide

Row | Substance | In vitro Cleavage Activity (using FRET) [1] | Ex vivo Cleavage activity (using FRET) [2] | selectivity of peptide cleavage [1]
1 | FITC-Ahx-Gly-Gly-Gly-Gly-Lys-DABCYL ({FITC-Ahx}-GGGGK-{DABCYL}) | P. aeruginosa | P. aeruginosa | –
2 | FITC-Ahx-Leu-DLeu-Lys-DABCYL [BikKam 1] | B. anthracis | – | highly selective for B. anthracis
3 | FITC-Ahx-Leu-DVal-Lys-DABCYL [BikKam 6] | B. anthracis (moderate) | – | –
